Measurements from US20240246905A1 (University of Leicester, priority 2021, published 2024).
Converted amounts (≈) assume the structure as drawn.

Columns and labels:
[1] = system: late-exponential phase MRSA 252; assay: Time-kill assay; assay type: cell-based, S. aureus
Method: Investigations into the precise mode of action of these compounds was next studies, with time-kill assays, resistance studies, live-dead stain and morphological analysis of bacteria exposed to the compounds providing an insight into the specific mode of action. Time-kill assays were used to evaluate whether the compounds were bacteriostatic or bactericidal.
The mode of inhibitory action of our novel class of compounds was determined by measuring the decrease in CFU over time. […] The pellets were re-suspended in TSB with the antibiotic added at 2× and 4×MIC and incubated at 37° C. Bacterial suspensions mixed with 1 M saline served as a control. […]

S. aureus SH1000 cells [2] = assay: Potassium leakage detection; assay type: cell-based; conditions: 60 minutes, MRSA cells
Method: The potassium leakage of S. aureus SH1000 cells exposed to compounds was conducted as per previously published methods. Briefly, compounds were incubated with mid-exponential-phase S. aureus SH1000 cells in HEPES buffer (˜10^8 CFU/ml) for 60 minutes. Cells were then removed by centrifugation, and the supernatant was assayed for K^+ efflux by using a Perkin-Elmer 11001B atomic absorption instrument in flame emission mode (wavelength, 766.5 nm; slit, 0.7 nm high; air-acetylene flame). Prior to measurements, the instrument was calibrated using analytical grade potassium standards.

S. aureus SH1000 cells [3] = assay: DiSC3(5) membrane potential assay; assay type: cell-based; conditions: 16 μg/mL, 180 minutes
Method: We next looked to further confirm the cell membrane as being the target site of action for our compounds, by undertaking a membrane depolarization assay using the voltage sensitive dye, 3,3′-dipropylthiacarbocyanine iodide (DiSC3(5)).
[…] Cultures of SH1000 were grown to OD600 of 0.2 before being incubated further with 0.1 M KCl and 2 μM DiSC3(5) for 30 minutes at 37° C. […] Subsequently, the cells were centrifuged and 1 mL of supernatant mixed with 1 mL DMSO; the centrifuged pellet was lysed in DMSO for 10 minutes and added to equal volumes of HEPES and glucose buffer. Extracellular and intracellular fluorescence was measured on a LS 45 luminescence spectrometer (PerkinElmer) at an excitation and emission of 622 nm and 670 nm respectively. Consequently, the membrane potential was calculated using the Nernst equation and expressed as a percentage of the initial value.

[4] = system: Pseudomonas aeruginosa PA01; assay: Disc diffusion (Kirby-Bauer), zone of inhibition; assay type: cell-based; conditions: 500 μg/mL, '/' = no zone
Method in brief: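 Zones of inhibition recorded after 24 h at 37 °C on Mueller-Hinton agar. Agar was inoculated with 1 in 200 diluted 18 h broth cultures, and discs carried 50 μL of antibiotic. Method follows CLSI 2017 disc diffusion.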

E. coli strain DH5a = assay: MIC with and without outer membrane permeabilisation; assay type: cell-based; conditions: Escherichia coli
Method: Antibiotic MIC's were determined by a broth micro-dilution method according to Clinical Standard Laboratory Institute (CSLI) Guidelines (2017). Briefly, 96-well microplates, each containing 195 μL of the 1:2 dilution antibiotic in TSB, were inoculated with 5 μL of overnight cultured bacteria, diluted to give a starting bacterial concentration of 5×10^5 CFU/mL. The optical density of each well inoculated was recorded every 12 minutes over an 18 hour period at 37° C. The data from this was plotted in OriginPro8 (OriginLab) and sigmoidal curves fitted using the dose response function. Fitted values for each curve were used to calculate the MIC.

[5] = Acid stability in 1M acetic acid (NMR, IR); assay type: physicochemical; conditions: 6 hours in 1M acetic acid (pH 2.37)
Method: Also, well documented in the literature, is the hydrolysis of isocyanide compounds to their corresponding formamide in acidic conditions. Due to the acidic conditions present in the stomach it was important to identify whether the lead compounds might hydrolyse to their corresponding formamide compounds in-vivo. To determine this, Compound 41 was stirred for 6 hours in 1M acetic acid (pH 2.37), mimicking the length of time oral drugs are present in the stomach. The NMR data obtained after 6 hours was identical to that of compound 41 before the assay (FIG. 18). In addition to the NMR, IR analysis further confirmed the presence of the isocyanide group post treatment with acid, as shown by the sharp signal at approximately 2100 cm^−1.

MRSA 252 = assay: Resistance testing by serial passaging; assay type: cell-based, S. aureus; conditions: 18 serial passage cycles
Method: Next a serial passage study was undertaken in order to elucidate the speed at which target bacteria might either evolve resistance or select for persister cells within that population following exposure to compound 36.
For resistance development by serial passaging, 5 μL of overnight cultured MRSA 252 cells were added to individual wells in a 96-well plate containing 195 μL of TSB supplemented with a range of antibiotic concentrations and incubated at 37° C. for 18 hours. Ofloxacin served as a control. Wells where bacterial growth was visible after 18 hours were plated on TSA plates and incubated at 37° C. for a further 18 hours. Single colonies obtained from the overnight cultured bacteria were then inoculated into fresh TSB medium, incubated at 37° C. for 18 hours before being used in the next cycle of the resistance testing. This process continued for 18 cycles.

Galleria mellonella = assay: Systemic toxicity, Galleria mellonella survival; conditions: n = 10, injection of 500 μg/mL
Method: Galleria mellonella wax worms purchased from www.livefoods.co.uk were inoculated with 10 μL of a series of dilutions of the antibiotics synthesised in-house. The antibiotic concentrations chosen for this study were the following: 1000 μg/mL, 500 μg/mL, 250 μg/mL, 125 μg/mL and 31.25 μg/mL. Each dilution was injected into 10 individual wax worms through their last pro-leg. The injected wax worms were stored at 25° C. for 5 days. The cytotoxicity was determined as the percentage survival rate of Galleria mellonella Wax worms after 5 days inoculation.

[C-]#[N+]/C=C/c1ccc(NC(C)=O)cc1/C=C/c1ccccc1 [Compound 41, N-(4-((E)-2-Isocyanovinyl)-3-((E)-styryl)phenyl)acetamide]
reduction in bacterial density ([1]; 20 hours exposure, 2×MIC, MRSA 252 in TSB): 4 log
bacteriostatic or bactericidal ([1]; late-exponential phase MRSA 252): bactericidal activity
dissipation of cellular K+ ions (S. aureus SH1000 cells [2]): 50%
reduction in the proton motive force (S. aureus SH1000 cells [3]): 70%
zone of inhibition at 500 µg/mL [4]: 16 mm
MIC (E. coli strain DH5a; not permeabilised): 280 µg/mL (≈ 971 µM)
MIC (E. coli strain DH5a; outer membrane permeabilised with polymixin B nanopeptides): 16 µg/mL (≈ 55.5 µM)
NMR data after acid exposure [5]: identical

[C-]#[N+]/C=C/c1ccc(O)cc1/C=C/c1ccccc1 [Compound 36, 4-((E Z)-2-Isocyanovinyl)-3-((E)-styryl)phenol]
change of MIC after serial passage (in words) (MRSA 252): no increase in the MIC

(2-Isocyanovinyl)-4-acetaamido benzene [Compound 22]
% survival after 5 days (Galleria mellonella): 70%
